These results are taken from article PMC7763917, “A Facile Semisynthesis and Evaluation of Garcinoic Acid and Its Analogs for the Inhibition of Human DNA Polymerase β” (Molecules, 2020).

Where only a bound is given, the exact number is not on record here.

The target of experiment [1] is T1, human DNA polymerase β (hpol β) (Homo sapiens, UniProt P06746). Description: fluorescence-based polymerase inhibition assay. The following applies: 1 nM hpol β, 50 nM DNA, 100 μM dTTP, 25 °C; compounds tested from 1 μM to 120 μM; mean of triplicate; read-out: IC50 in inhibiting hpol β. It is filed as biochemical. The procedure:
A fluorescence-based assay, as described previously, was used to determine the IC50 values for garcinoic acid and its homologs for human DNA polymerase β. DNA substrates were prepared as we reported previously. Briefly, a reporter strand conjugated with 5-carboxytetramethylrhodamine (TAMRA) and an unlabeled primer were annealed to a Black Hole Quencher (BHQ)-labelled template strand in a solution containing 10 mM Tris (pH 8.0) and 50 mM NaCl. The oligonucleotides were annealed in a 1:1.5:1.5 ratio for reporter, primer and template strand, respectively. The oligonucleotides were mixed and incubated for 3 min at 95 °C before cooling to room temperature.
The polymerase reaction was performed with 1 nM hpol β, 50 nM DNA, 100 μM dTTP and 2 mM MgCl2 in 50 mM Tris (pH 8.0) buffer containing 40 mM NaCl, 2 mM DTT and 0.01% (w/v) Tween 20. The reaction mix containing enzyme and dTTP were incubated for 5 min with the compound or DMSO in a 96-well plate before adding DNA to initiate the reaction. Polymerase reactions were performed at room temperature (25 °C). The plate was read continuously for one hour with a Synergy H4 plate reader (BioTek, λex = 525 nm, λem = 598 nm) (Winooski, VT, USA) after initiation of the reaction. The percent inhibition was calculated by dividing the rate of product formation at each compound concentration by the rate of product formation in DMSO control. The data was fit to a four-parameter logistic model with variable slope in Prism (San Diego, CA, USA) to calculate the IC50 values. The reactions were performed in triplicate and the mean IC50 value is reported with 95% confidence intervals.

For experiment [2], the target named is T1, human DNA polymerase β (hpol β). Set-up: method as in PMID 16146411. The following applies: garcinoic acid analog with the dihydropyran ring opened; not in Table 2, no reference printed at the sentence; cited from earlier work.

The term IC50 denotes the midpoint of a concentration-inhibition curve. On to `C/C(=C\CC/C(C)=C/CC[C@]1(C)CCc2cc(O)cc(C)c2O1)CC/C=C(\C)C(=O)O` [Compound 1, 13-[(R)-6-Hydroxy-2,8-dimethylchroman-2-yl]-2,6,10-trimethyltrideca-2E,6E,10E-trienoic acid], for which the IC50 in experiment [1] was determined as 11 µM.
Consider `C/C(=C\CC[C@]1(C)CCc2cc(O)cc(C)c2O1)C(=O)O` [Compound 9a, 5-[(R)-6-Hydroxy-2,8-dimethylchroman-2-yl]-2-methylpent-2E-enoic acid], for which the IC50 in experiment [1] was over 120 µM.
On to `Cc1cc(O)cc2c1O[C@](C)(CC/C=C/C(=O)O)CC2` [Compound 9b, 5-[(R)-6-Hydroxy-2,8-dimethylchroman-2-yl]pent-2E-enoic acid], for which, in experiment [1], the IC50 was over 120 µM.
Still for that read-out and setting: with `C/C(=C\CC[C@]1(C)CCc2cc(O)cc(C)c2O1)CC/C=C(\C)C(=O)O` [Compound 10a, 9-[(R)-6-Hydroxy-2,8-dimethylchroman-2-yl]-2,6-dimethylnona-2E,6E-dienoic acid] the figure was 52 µM; with `C/C(=C\CC[C@]1(C)CCc2cc(O)cc(C)c2O1)CC/C=C/C(=O)O` [Compound 10b, 9-[(R)-6-Hydroxy-2,8-dimethylchroman-2-yl]-6-methylnona-2E,6E-dienoic acid], 49 µM.
As for `C/C(=C\CC/C(C)=C/CC[C@]1(C)CCc2cc(O)cc(C)c2O1)CC/C=C/C(=O)O` [Compound 11, 13-[(R)-6-Hydroxy-2,8-dimethylchroman-2-yl]-6,10-dimethyltrideca-2E,6E,10E-trienoic acid], in experiment [1], the IC50 stood at 23 µM.
Still for that read-out and setting: under `COC(=O)/C(C)=C/CC[C@]1(C)CCc2cc(O)cc(C)c2O1` [Compound 12a, Methyl 5-[(R)-6-hydroxy-2,8-dimethylchroman-2-yl]-2-methylpent-2E-enoate] stands over 120 µM.
Still for that read-out and setting: under `COC(=O)/C=C/CC[C@]1(C)CCc2cc(O)cc(C)c2O1` [Compound 12b, Methyl 5-[(R)-6-hydroxy-2,8-dimethylchroman-2-yl]pent-2E-enoate] stands over 120 µM; under `COC(=O)/C(C)=C/CC/C(C)=C/CC[C@]1(C)CCc2cc(O)cc(C)c2O1` [Compound 13a, Methyl 9-[(R)-6-hydroxy-2,8-dimethylchroman-2-yl]-2,6-dimethylnona-2E,6E-dienoate], over 120 µM; under `COC(=O)/C=C/CC/C(C)=C/CC[C@]1(C)CCc2cc(O)cc(C)c2O1` [Compound 13b, Methyl 9-[(R)-6-hydroxy-2,8-dimethylchroman-2-yl]-6-methylnona-2E,6E-dienoate], over 120 µM.
Still for that read-out and setting: with `COC(=O)/C(C)=C/CC/C(C)=C/CC/C(C)=C/CC[C@]1(C)CCc2cc(O)cc(C)c2O1` [Compound 14a, Methyl 13-[(R)-6-hydroxy-2,8-dimethylchroman-2-yl]-2,6,10-trimethyltrideca-2E,6E,10E-trienoate] the figure was over 120 µM; with `COC(=O)/C=C/CC/C(C)=C/CC/C(C)=C/CC[C@]1(C)CCc2cc(O)cc(C)c2O1` [Compound 14b, Methyl 13-[(R)-6-hydroxy-2,8-dimethylchroman-2-yl]-6,10-dimethyltrideca-2E,6E,10E-trienoate], over 120 µM; with `COC(=O)/C(C)=C/CC/C(C)=C/CC/C(C)=C/CC[C@]1(C)CCc2cc(OC)cc(C)c2O1` [Compound 15, Methyl 13-[(R)-6-methoxy-2,8-dimethylchroman-2-yl]-2,6,10-trimethyltrideca-2E,6E,10E-trienoate], over 120 µM.
With `COc1cc(C)c2c(c1)CC[C@@](C)(CC/C=C(\C)CC/C=C(\C)CC/C=C(\C)C(=O)O)O2` [Compound 16, 13-[(R)-6-methoxy-2,8-dimethylchroman-2-yl]-2,6,10-trimethyltrideca-2E,6E,10E-trienoic Acid], the IC50 in experiment [1] was determined as 31 µM.
As for `C/C(=C\CC/C(C)=C/CC[C@@](C)(O)CCc1cc(O)cc(C)c1O)CC/C=C(\C)C(=O)O` [chrysochlamic acid], the “hpol β inhibition activity (in words)” value in experiment [2] was “lack of hpol β inhibition activity”.
